Data published in patent US10364216B2, “Alkenyl sulfate ester or salt thereof” (Kao Corporation, priority 2013, dated 2019).
Counter-ions that a name gives are not always drawn.

Columns and labels:
Format in all cases: in vivo, human
[1] = Evaluation of sweetness (1)/(2): presence or absence of sweetness judged by examiners
Experimental: Trans-3-octenyl sulfate was dissolved in water to be 1 wt %, which was taken as a test sample. Six examiners kept 50 μL of the prepared test sample in their mouth, and then drunk some water, and judged for presence or absence of sweetness.
Cis-3-octenyl sulfate was dissolved in water to 1 wt %, which was taken as a test sample. Four examiners kept 50 μL of the prepared test sample in their mouth, and then drunk some water, and judged presence or absence of sweetness.

[2] = Evaluation of sweetness (3)/(4): sweetness intensity over time against sucrose standard solutions
Experimental: (§1) To seven examiners, 4 kinds of 10 mL aqueous sucrose standard solutions (2.5, 5.0, 7.5 and 10.0 wt %) were presented. The examiners kept each of the solutions in their mouth for 5 seconds or so, and then spat the solution out, and were asked to consider the sweetness intensity at that time (0 to 15) to be 2.5, 5, 7.5 and 10, respectively. Next, the examiners kept 10 mL solution of 10 mM trans-3-octenyl sulfate in their mouth for 5 seconds or so, and then spat the solution out, and compared the sweetness intensity at that time with that of the aqueous sucrose standard solution, and evaluated the sweetness intensity with a number in a range of 0 to 15. Then, the examiners kept 10 mL pure water for 5 minutes at an interval of 30 seconds, and then spat the solution out, and evaluated the sweetness intensity at that time in the same manner.
as §1, with “four” for “4”, “cis-3-octenyl” for “trans-3-octenyl”, “water in their mouth” for “water”

[3] = Sweetness adjusting action on sucrose, aspartame, sucralose, glycyrrhizin (simultaneous intake); details: 5 mM, taken simultaneously with sweetener
Experimental: To seven examiners, four kinds of 10 mL aqueous sucrose standard solutions (2.5, 5.0, 7.5 and 10.0 wt %) were presented. The examiners kept each of the solutions in their mouth for 5 seconds or so, and then spat the solution out, and were asked to consider the sweetness intensity at that time (0 to 15) to be 2.5, 5, 7.5 and 10, respectively. Next, the examiners kept 10 mL aqueous solution (7.5 wt %) of sucrose in their mouth for 5 seconds or so without knowing the kind and the concentration of the sweetener, and then spat the solution out, and compared the sweetness intensity at that time with that of the aqueous sucrose standard solution, and evaluated the sweetness intensity with a number in a range of 0 to 15. In addition, after 30 seconds, the examiners kept 10 mL pure water in their mouth, and then spat the solution out, and compared the sweetness intensity felt at that time with that of the aqueous sucrose standard solution, and evaluated the sweetness intensity in the same manner. Subsequently, the examiners were presented with 10 mL aqueous sucrose solution containing 5 mM trans-3-octenyl sulfate (7.5 wt %), and kept it in their mouth for 5 seconds or so, and then spat the solution out, and compared the sweetness intensity at that time with the sweetness intensity of the aqueous sucrose standard solution, and evaluated the sweetness intensity in the same manner. In addition, immediately after that, the examiners kept 10 mL pure water in their mouth for 5 seconds or so, and then spat the solution out, and compared the sweetness intensity at that time with that of the aqueous sucrose standard solution, and evaluated the sweetness intensity in the same manner. In addition, after 30 seconds, the examiners kept 10 mL pure water in their mouth, and then spat the solution out, and compared the sweetness intensity felt at that time with that of the aqueous sucrose standard solution, and evaluated the sweetness intensity in the same manner.
To seven examiners, 4 kinds of 10 mL aqueous sucrose standard solutions (2.5, 5.0, 7.5 and 10.0 wt %) were presented. The examiners kept each of the solutions in their mouth for 5 seconds or so, and then spat the solution out, and were asked to consider the sweetness intensity at that time (0 to 15) to be 2.5, 5, 7.5 and 10, respectively. Next, the examiners kept 10 mL aqueous solution of aspartame (494 ppm) in their mouth for 5 seconds or so without knowing the kind and the concentration of the sweetener, and then spat the solution out, and compared the sweetness intensity at that time with that of the aqueous sucrose standard solution, and evaluated the sweetness intensity with a number in a range of 0 to 15. The concentration of aspartame was prepared to have the same sweetness intensity as that of the aqueous sucrose solution (7.5 wt %) in accordance with the reference (Schiffman, S. S. et al. Chemical senses, 1999, 24, 439-447.). In addition, after 30 seconds, the examiners kept 10 mL pure water in their mouth, and then spat the solution out, and compared the sweetness intensity felt at that time with that of the aqueous sucrose standard solution, and evaluated the sweetness intensity in the same manner. Subsequently, the examiners were presented with 10 mL aqueous solution of aspartame containing 5 mM trans-3-octenyl sulfate (494 ppm), and kept it in their mouth for 5 seconds or so, and then spat the solution out, and compared the sweetness intensity at that time with the sweetness intensity of the sucrose standard solution, and evaluated the sweetness intensity in the same manner. In addition, after 30 seconds, the examiners kept 10 mL pure water in their mouth, and then spat the solution out, and compared the sweetness intensity felt at that time with that of the aqueous sucrose standard solution, and evaluated the sweetness intensity in the same manner. […]

[4] = 1 wt % in water, 50 μL kept in mouth, then water (13 ml), six examiners (trans), four examiners (cis)

For `CCCC/C=C/CCOS(=O)(=O)O` [trans-3-octenyl sulfate], the “No sweetness felt (number of examiners)” value [1, 4] was 0, the “Sweetness felt (number of examiners)” value [1, 4] was 6 and the Duration of sweetness ([1]; 1 wt %, 50 μL, then water) was “the sweetness lasted for a certain time”. For the same compound, the “Examiners who recognized the sweetness by virtue of intake of water” value ([2]; 10 mL of 10 mM solution, then pure water every 30 seconds) was “Seven out of the seven”, the Duration of sweetness ([2]; 10 mL of 10 mM solution, then pure water every 30 seconds for 5 minutes) was “the sweetness lasted for a certain time” and the “Sweetness intensity (mean)” value ([2]; Time 0 minute, 10 mL of 10 mM solution kept 5 seconds, scale 0 to 15 vs sucrose standards, seven examiners) was 0.0. For the same compound, the “Sweetness intensity (mean)” value ([2]; Time 0.5 minute, on keeping 10 mL pure water, after 10 mM solution, scale 0 to 15) was 1.7, the “Sweetness intensity (mean)” value ([2]; Time 1 minute, on keeping 10 mL pure water, after 10 mM solution, scale 0 to 15) was 3.6 and the “Sweetness intensity (mean)” value ([2]; Time 1.5 minute, on keeping 10 mL pure water, after 10 mM solution, scale 0 to 15) was 3.9. The “Sweetness intensity (mean)” value ([2]; Time 2 minute, on keeping 10 mL pure water, after 10 mM solution, scale 0 to 15) was 3.6, the “Sweetness intensity (mean)” value ([2]; Time 2.5 minute, on keeping 10 mL pure water, after 10 mM solution, scale 0 to 15) was 3.0 and the “Sweetness intensity (mean)” value ([2]; Time 3 minute, on keeping 10 mL pure water, after 10 mM solution, scale 0 to 15) was 2.1. For the same compound, the “Sweetness intensity (mean)” value ([2]; Time 3.5 minute, on keeping 10 mL pure water, after 10 mM solution, scale 0 to 15) was 1.1, the “Sweetness intensity (mean)” value ([2]; Time 4 minute, on keeping 10 mL pure water, after 10 mM solution, scale 0 to 15) was 0.8 and the “Sweetness intensity (mean)” value ([2]; Time 4.5 minute, on keeping 10 mL pure water, after 10 mM solution, scale 0 to 15) was 0.5. For the same compound, the “Sweetness intensity (mean)” value ([2]; Time 5 minute, on keeping 10 mL pure water, after 10 mM solution, scale 0 to 15) was 0.6, the “Effect on aftertaste of sweetness remaining in the mouth” value [3] was “reinforces the aftertaste of sweetness remaining in the mouth” and the “Effect on first taste of sweetness immediately after taking sucrose, aspartame, sucralose or glycyrrhizin” value [3] was “inhibits the first taste of sweetness”.
